# Values of other authors as cited in patent US20080292726A1, “[…] COMPOSITIONS AND METHODS OF THEIR USE” (priority 2007, published 2008).
# System: mouse model of uveitis
# Details: systemically administered, subcutaneously injected into the neck
structure (smiles),measurement,value
O=[N+]([O-])[O-].O=[N+]([O-])[O-].O=[N+]([O-])[O-].[Ga+3] [gallium nitrate],efficacy in a mouse model of uveitis,effective
